The source made the active and inactive calls. For most assays here, no stated cut-off is given here; in the data, actives have a measured EC50 and inactives only a lower limit.
Tests used:
[1] = target: T1, RNA-binding protein pos-1 (Caenorhabditis elegans, UniProt G5EF15); assay: inhibitors of POS-1/mex-3 RNA binding, dose response, biochemical, fluorescence polarization (AID 1964);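 further: purified POS-1 fused to maltose binding protein made in E. coli; potency of compounds blocking POS-1 binding to fluorescent RNA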
T1 sequence (G5EF15 whole entry): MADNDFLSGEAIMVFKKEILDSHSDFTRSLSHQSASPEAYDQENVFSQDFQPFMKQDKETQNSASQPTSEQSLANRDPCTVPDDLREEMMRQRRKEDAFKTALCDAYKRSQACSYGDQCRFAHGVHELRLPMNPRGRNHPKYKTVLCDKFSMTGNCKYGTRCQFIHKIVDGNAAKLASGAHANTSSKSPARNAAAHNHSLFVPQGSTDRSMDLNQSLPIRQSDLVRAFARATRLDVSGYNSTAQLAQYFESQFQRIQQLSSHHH

[2] = target: T2, Zinc finger protein mex-5 (Caenorhabditis elegans, UniProt Q9XUB2); assay: MEX-5/TCR-2 RNA interaction inhibitors, dose response, biochemical, C. elegans, fluorescence polarization (AID 1960)
T2 sequence (Q9XUB2 whole entry): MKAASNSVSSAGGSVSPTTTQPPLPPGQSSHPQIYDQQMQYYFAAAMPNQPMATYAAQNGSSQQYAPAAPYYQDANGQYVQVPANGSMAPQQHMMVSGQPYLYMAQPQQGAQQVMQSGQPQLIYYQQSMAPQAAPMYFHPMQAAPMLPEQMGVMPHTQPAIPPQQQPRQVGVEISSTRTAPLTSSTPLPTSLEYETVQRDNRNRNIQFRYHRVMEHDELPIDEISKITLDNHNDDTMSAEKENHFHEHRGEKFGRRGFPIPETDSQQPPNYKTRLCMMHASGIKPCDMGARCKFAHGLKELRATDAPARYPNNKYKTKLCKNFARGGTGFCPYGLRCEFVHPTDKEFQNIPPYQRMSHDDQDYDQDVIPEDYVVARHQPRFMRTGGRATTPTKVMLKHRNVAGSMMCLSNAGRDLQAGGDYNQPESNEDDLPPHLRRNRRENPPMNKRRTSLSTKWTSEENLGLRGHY

[3] = target: T3, Heat shock factor protein 1 (Mus musculus, UniProt P38532); assay: inhibition of MG132-induced HSE-luciferase signal, confirmation, cell-based, NIH3T3, luminescence, dose retest (AID 2382); assay type: functional;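 further: NIH3T3 fibroblasts with HSF1-driven luciferase reporter stressed by proteasome inhibitor MG132; luminescence from HSF1-driven luciferase expression after 8 hours of MG132 stress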
T3 sequence (P38532 whole entry): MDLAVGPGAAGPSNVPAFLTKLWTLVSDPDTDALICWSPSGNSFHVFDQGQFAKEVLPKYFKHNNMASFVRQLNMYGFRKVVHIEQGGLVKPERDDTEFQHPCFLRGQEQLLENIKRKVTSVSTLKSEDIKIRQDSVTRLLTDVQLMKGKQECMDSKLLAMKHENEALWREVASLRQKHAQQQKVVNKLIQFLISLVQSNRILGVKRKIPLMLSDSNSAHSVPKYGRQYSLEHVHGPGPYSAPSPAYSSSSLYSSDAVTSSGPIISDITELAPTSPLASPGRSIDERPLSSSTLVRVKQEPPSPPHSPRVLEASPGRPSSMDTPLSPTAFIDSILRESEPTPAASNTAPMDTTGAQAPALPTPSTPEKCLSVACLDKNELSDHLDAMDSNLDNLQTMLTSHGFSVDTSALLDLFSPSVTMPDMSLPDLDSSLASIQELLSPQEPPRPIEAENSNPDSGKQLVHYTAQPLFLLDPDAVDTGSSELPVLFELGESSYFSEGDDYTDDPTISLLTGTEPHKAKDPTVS

H9c2 = assay: cells; assay type: functional, cell-based; details: Rattus norvegicus, H9c2, Myocardium;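 further: confirmatory concentration-response retest of ultra-high-throughput screening hits for modulation of myocardial damage; cell death induced by hydrogen peroxide oxidative stress; compound pretreatment for 60 min then peroxide exposure for 2 h; potency is for protecting the cells against peroxide damage rather than for killing them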
Paired box protein Pax-8 = Paired box protein Pax-8 (Homo sapiens, UniProt Q06710); assay: inhibitors of PAX8-driven TPO luciferase reporter, dose response, RMG-I cells, cherry-pick (AID 687027); assay type: functional, cell-based;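 further: luciferase reporter driven by Pax8 target thyroperoxidase promoter measured by SteadyGlo luminescence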
Chain of Paired box protein Pax-8 (Q06710 whole entry): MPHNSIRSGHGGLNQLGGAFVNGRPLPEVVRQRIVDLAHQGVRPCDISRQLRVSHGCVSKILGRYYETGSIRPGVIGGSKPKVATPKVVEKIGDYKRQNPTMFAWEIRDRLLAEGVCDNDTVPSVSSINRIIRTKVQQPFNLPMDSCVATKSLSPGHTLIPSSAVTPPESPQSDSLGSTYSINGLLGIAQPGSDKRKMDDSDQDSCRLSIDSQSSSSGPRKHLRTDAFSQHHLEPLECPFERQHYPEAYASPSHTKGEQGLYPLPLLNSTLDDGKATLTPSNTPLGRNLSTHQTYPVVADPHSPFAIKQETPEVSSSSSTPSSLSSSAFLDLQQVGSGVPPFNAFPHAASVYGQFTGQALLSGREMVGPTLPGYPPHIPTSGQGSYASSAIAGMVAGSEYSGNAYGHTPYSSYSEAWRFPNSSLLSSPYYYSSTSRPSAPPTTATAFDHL

Cytochrome P450 3A4 = Cytochrome P450 3A4 (Homo sapiens, UniProt P08684);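 further: CYP3A4 tested as one member of a cytochrome P450 panel screen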
Chain of Cytochrome P450 3A4 (P08684 whole entry): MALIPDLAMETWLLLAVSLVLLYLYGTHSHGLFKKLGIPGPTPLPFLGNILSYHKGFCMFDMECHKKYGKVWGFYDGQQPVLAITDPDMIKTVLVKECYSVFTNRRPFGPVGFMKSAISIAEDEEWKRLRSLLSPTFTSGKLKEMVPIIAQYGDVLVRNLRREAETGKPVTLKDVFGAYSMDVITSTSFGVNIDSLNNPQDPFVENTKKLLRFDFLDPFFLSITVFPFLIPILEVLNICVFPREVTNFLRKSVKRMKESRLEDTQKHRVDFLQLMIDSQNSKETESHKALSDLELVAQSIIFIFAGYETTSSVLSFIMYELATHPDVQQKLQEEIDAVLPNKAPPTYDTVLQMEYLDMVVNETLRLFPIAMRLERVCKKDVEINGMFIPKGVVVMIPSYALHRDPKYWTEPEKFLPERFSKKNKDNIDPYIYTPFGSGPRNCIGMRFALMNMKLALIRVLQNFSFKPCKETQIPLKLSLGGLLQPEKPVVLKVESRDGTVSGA

[4] = Luminescence Cell-Based Dose Confirmation HTS to Identify Activators of 5'UTR Stem-Loop Driven Alpha-Synuclein mRNA Translation in H4 Neuroglioblastoma Cells. [Related pubchem assays: 1829 (Project Summary), 1814 (Primary HTS)]; assay type: functional
[5] = Luminescence Cell-Based Dose Response HTS to Identify Activators of Luciferase Translation or Activity in H4 […] Cells. [Related pubchem assays: 1829 (Project Summary), 1814 (Primary HTS)]; assay type: functional
H4 = assay: Luminescence Cell-Based Dose Response HTS to Identify Activators of 5'UTR Stem-Loop Driven Prion Protein mRNA Translation in H4 Neuroglioblastoma Cells. [Related pubchem assays: 1829 (Project Summary), 1814 (Primary HTS)]; assay type: functional; details: Homo sapiens

With CC(C)OC(=O)CC(=O)c1sc2nc3c(cc2c1N)CN(C)CC3 the EC50 [1] was > 300 µM (not active) and the EC50 [2] was 19.3 µM (inconclusive).

For COc1ccc(CC(=O)NCC2CCCN(Cc3ccccc3Cl)C2)cc1 (stereo unspecified), the EC50 [3] was > 195 µM (not active).

For O=c1c2ccccc2nc2c3ccccc3c(NCCO)nn12, the IC50 (H9c2) was 20.2 µM (active).

For O=C(CC(=O)c1ccccc1[N+](=O)[O-])c1ccccc1, the EC50 [3] was > 195 µM (not active).

In the case of O=[N+]([O-])c1ccccc1S(=O)(=O)n1nnc2ccccc21, the EC50 [1] is reported as > 300 µM (not active) and the EC50 [2] is reported as > 300 µM (not active).

With COc1c(C)cc(Br)cc1C(=O)Nc1cccc(-c2nc3ncccc3o2)c1 the IC50 (H9c2) was > 79 µM (inactive).

In the case of Cc1ccc(CO/N=C/c2c(O)cc(C)oc2=O)cc1, the EC50 [3] is reported as > 195 µM (not active).

With CCOC(=O)[C@@]1(C#N)C(c2ccc(Cl)c(Cl)c2)[C@H](C(N)=O)N2C=C(C(C)=O)C=C[C@H]21 (stereo partly specified) the EC50 [1] was 55.7 µM (inconclusive) and the EC50 [2] was 24 µM (inconclusive).

For COC(=O)c1ccc(C)c(-n2c(C)cc(C=O)c2C)c1, the EC50 [1] was > 300 µM (not active) and the EC50 [2] was > 300 µM (not active).

With Cc1ccc(-c2ccccc2)n1-c1cccc(C(=O)O)c1 the EC50 [1] was 109 µM (active) and the EC50 [2] was > 300 µM (not active).

In the case of Cc1ccc(-c2nnc(O)c3ccccc23)cc1S(=O)(=O)NCCO, the IC50 (H9c2) is reported as > 79 µM (inactive).

With CCN(Cc1cc(=O)oc2cc(C)ccc12)c1ccccc1 the EC50 [3] was > 195 µM (not active).

For COc1ccc(N(CC(=O)NCc2ccc(F)cc2)C(=O)Cn2nnc(-c3ccc(C)o3)n2)cc1OC, the EC50 [3] was > 195 µM (not active).

For Cc1nc2ccccc2c2c(N)c3ccccc3n12, the IC50 (H9c2) was 21.6 µM (active).

For C[C@@H]1CN([C@@H](C)CO)C(=O)c2cc(NS(=O)(=O)c3ccc(F)cc3)ccc2O[C@@H](C)CCCCO[C@H]1CN(C)Cc1ccc(C(F)(F)F)cc1, the AC50 (Paired box protein Pax-8) was 7.5 µM (active).

In the case of NC(=O)c1oc2ccccc2c1NC(=O)c1ccco1, the IC50 (H9c2) is reported as 17 µM (active).

With CN1CCC(N(C)C(=O)CCc2nc(O)c3ccccc3n2)CC1 the AC50 (Cytochrome P450 3A4) was 28.2 µM (inconclusive) and the IC50 (H9c2) was > 79 µM (inactive).

In the case of CC(CN1CCOCC1)OC(=O)C(c1ccccc1)c1ccccc1 (stereo unspecified), the EC50 [3] is reported as > 195 µM (not active).

For COc1ccc(CNC(=O)COC(=O)c2cc(-c3ccc(Cl)s3)nc3ccccc23)cc1, the EC50 [1] was 92.1 µM (active) and the EC50 [2] was 58.6 µM (active).

In the case of C[C@H]1CCCCO[C@H](CN(C)S(=O)(=O)c2ccc(Cl)cc2)[C@@H](C)CN([C@@H](C)CO)C(=O)c2cc(NS(=O)(=O)c3ccc(Cl)cc3)ccc2O1, the AC50 (Paired box protein Pax-8) is reported as 5.52 µM (active).

With COc1cc(-c2cnc3c(NC=O)cc(-c4cccnc4)cn23)cc(OC)c1OC the IC50 (H9c2) was 22.4 µM (active).

In the case of C/C(=N/C1CC1)C1=C(O)c2ccccc2C1=O, the EC50 [4] is reported as > 120 µM (not active), the EC50 [5] is reported as 20.2 µM (active) and the EC50 (H4) is reported as 6.75 µM (active).

From ChEMBL document CHEMBL1201862, “PubChem BioAssay data set” (2004)
